Our source for the IC50 values is patent US20140255392A1 (BAYER INTELLECTUAL PROPERTY GMBH, priority 2011, published 2014).

For this assay, the target named is T1, human kinase Mps-1 (Homo sapiens, UniProt P33981).
T1 construct: N-terminally GST-tagged human full length recombinant Mps-1 kinase; GST (N); purchased Invitrogen, Karslruhe, Germany PV4071
T1 sequence (P33981 1-857): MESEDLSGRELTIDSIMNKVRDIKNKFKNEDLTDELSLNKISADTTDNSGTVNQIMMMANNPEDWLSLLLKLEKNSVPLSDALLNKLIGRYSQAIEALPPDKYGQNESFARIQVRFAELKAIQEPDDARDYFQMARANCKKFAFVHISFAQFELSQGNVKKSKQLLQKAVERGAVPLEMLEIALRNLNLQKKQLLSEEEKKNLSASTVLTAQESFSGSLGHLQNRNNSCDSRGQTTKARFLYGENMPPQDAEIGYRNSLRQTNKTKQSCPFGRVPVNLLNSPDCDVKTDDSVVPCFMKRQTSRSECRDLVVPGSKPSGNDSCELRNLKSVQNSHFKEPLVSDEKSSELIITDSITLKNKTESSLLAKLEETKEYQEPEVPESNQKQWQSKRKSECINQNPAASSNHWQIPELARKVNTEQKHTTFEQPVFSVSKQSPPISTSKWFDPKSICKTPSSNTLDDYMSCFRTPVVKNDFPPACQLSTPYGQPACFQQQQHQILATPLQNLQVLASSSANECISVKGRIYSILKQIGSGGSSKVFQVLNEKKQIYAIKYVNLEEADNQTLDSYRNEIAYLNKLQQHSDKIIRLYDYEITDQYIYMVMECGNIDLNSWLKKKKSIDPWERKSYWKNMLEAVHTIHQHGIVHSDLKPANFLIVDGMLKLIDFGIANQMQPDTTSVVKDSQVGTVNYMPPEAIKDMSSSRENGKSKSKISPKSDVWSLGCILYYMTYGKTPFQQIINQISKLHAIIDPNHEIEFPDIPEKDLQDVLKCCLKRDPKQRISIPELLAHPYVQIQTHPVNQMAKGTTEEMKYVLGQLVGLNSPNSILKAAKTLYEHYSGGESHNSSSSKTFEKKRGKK
Briefly: Mps-1 kinase assay (TR-FRET). It counts as biochemical. Conditions: N-terminally GST-tagged human full length recombinant Mps-1; 10 μM ATP; 1 μM peptide substrate; 60 min at 22° C. The protocol: The human kinase Mps-1 phosphorylates a biotinylated substrate peptide. Detection of the phosphorylated product is achieved by time-resolved fluorescence resonance energy transfer (TR-FRET) from Europium-labelled anti-phospho-Serine/Threonine antibody as donor to streptavidin labelled with cross-linked allophycocyanin (SA-XLent) as acceptor. Compounds are tested for their inhibition of the kinase activity.
N-terminally GST-tagged human full length recombinant Mps-1 kinase (purchased from Invitrogen, Karslruhe, Germany, cat. no PV4071) was used. As substrate for the kinase reaction a biotinylated peptide of the amino-acid sequence […] (C-terminus in amide form, purchased from Biosynthan GmbH, Berlin) was used.
The concentration of Mps-1 in the assay was adjusted to the activity of the enzyme lot and was chosen appropriate to have the assay in the linear range, typical enzyme concentrations were in the range of about 1 nM (final conc. in the 5 μl assay volume).
The resulting mixture was incubated 1 h at 22° C. to allow the binding of the phosphorylated peptide to the anti-phospho(Ser/Thr)-Europium-antibody. Subsequently the amount of phosphorylated substrate was evaluated by measurement of the resonance energy transfer from the Europium-labelled anti-phospho(Ser/Thr) antibody to the Streptavidin-XLent.
On the technique in general: Time-resolved FRET reads energy transfer from a long-lived donor to a nearby acceptor.

Molecules are shown by their SMILES.

In the case of `Cc1cc(-c2cnc3c(NCCC(F)(F)F)cc(-c4ccccc4O)cn23)ccc1C(=O)N[C@H]1C[C@@H]1F` (relative stereo) [Example 135, N-[rel-(1S,2S)-2-fluorocyclopropyl]-4-{6-(2-hydroxyphenyl)-8-[(3,3,3-trifluoropropyl)amino]imidazo[1,2-a]pyridin-3-yl}-2-methylbenzamide], the IC50 was determined as 8.4 nM.
Regarding `COc1ncc(Oc2cc(NCCC(F)(F)F)c3ncc(-c4ccc(C(=O)NC5CC5)c(C)c4)n3c2)cc1F` [Example 178, N-cyclopropyl-4-{6-[(5-fluoro-6-methoxypyridin-3-yl)oxy]-8-[(3,3,3-trifluoropropyl)amino]imidazo[1,2-a]pyridin-3-yl}-2-methylbenzamide], the IC50 was 2.2 nM.
Turning to `Cc1cc(-c2cnc3c(NCCC(F)(F)F)cc(Oc4cccc(Cl)c4)cn23)ccc1C(=O)N[C@@H]1C[C@H]1F` (relative stereo) [Example 39 (rac.-A), 4-{6-(3-chlorophenoxy)-8-[(3,3,3-trifluoropropyl)amino]imidazo[1,2-a]pyridin-3-yl}-N-[rel-(1R,2R)-2-fluorocyclopropyl]-2-methylbenzamide], the IC50 was determined as 3.1 nM.
For `Cc1cc(-c2cnc3c(NCCC(F)(F)F)cc(Oc4ccccc4)cn23)ccc1C(=O)NC1(C#N)CC1` [Example 57, N-(1-cyanocyclopropyl)-2-methyl-4-{6-phenoxy-8-[(3,3,3-trifluoropropyl)amino]imidazo[1,2-a]pyridin-3-yl}benzamide], the IC50 came out at 12.6 nM.
The value for `CNC(=O)c1ccc(-c2cnc3c(NCCC(F)(F)F)cc(-c4ccc(C(=O)NC5(CO)CC5)c(C)c4)cn23)cc1C` [Example 155, 4-{6-(4-{[1-(hydroxymethyl)cyclopropyl]carbamoyl}-3-methylphenyl)-8-[(3,3,3-trifluoropropyl)amino]imidazo[1,2-a]pyridin-3-yl}-N,2-dimethylbenzamide] was 21.1 nM; that for `Cc1cc(-c2cnc3c(NCCC(F)(F)F)cc(-c4ccc(C(=O)NC5(C)CC5)c(C)c4)cn23)ccc1C(=O)NC1CC1` [Example 149, 4-{3-[4-(cyclopropylcarbamoyl)-3-methylphenyl]-8-[(3,3,3-trifluoropropyl)amino]imidazo[1,2-a]pyridin-6-yl}-2-methyl-N-(1-methylcyclopropyl)benzamide] was 3 nM; that for `C/C=C/c1cc(NCCC(F)(F)F)c2ncc(-c3ccc(C(=O)N[C@H]4C[C@@H]4F)c(C)c3)n2c1` (relative stereo) [Example 116, N-[rel-(1S,2S)-2-fluorocyclopropyl]-2-methyl-4-{6-[(1E)-prop-1-en-1-yl]-8-[(3,3,3-trifluoropropyl)amino]imidazo[1,2-a]pyridin-3-yl}benzamide] was 19.9 nM.
The value for `C#Cc1cc(NCCC(F)(F)F)c2ncc(-c3ccc(C(=O)NCC)c(C)c3)n2c1` [Example 15, N-ethyl-4-{6-ethynyl-8-[(3,3,3-trifluoropropyl)amino]imidazo[1,2-a]pyridin-3-yl}-2-methylbenzamide] was 55 nM; that for `Cc1cc(-c2cnc3c(NCCC(F)(F)F)cc(Oc4ccc(OC(F)(F)F)cc4)cn23)ccc1C(=O)NC1(C)CC1` [Example 66, 2-Methyl-N-(1-methylcyclopropyl)-4-{6-[4-(trifluoromethoxy)phenoxy]-8-[(3,3,3-trifluoropropyl)amino]imidazo[1,2-a]pyridin-3-yl}benzamide] was 161 nM.
`CNC(=O)c1ccc(-c2cnc3c(NCCC(F)(F)F)cc(-c4ccc(C(=O)N[C@H]5C[C@@H]5F)c(C)c4)cn23)cc1C` (relative stereo) [Example 154, 4-{6-(4-{[rel-(1S,2S)-2-fluorocyclopropyl]carbamoyl}-3-methylphenyl)-8-[(3,3,3-trifluoropropyl)amino]imidazo[1,2-a]pyridin-3-yl}-N,2-dimethylbenzamide]: the IC50 was found to be 12.7 nM.
As to `C#Cc1cc(NCCC(F)(F)F)c2ncc(-c3ccc(C(=O)NC)c(C)c3)n2c1` [Example 14, 4-{6-ethynyl-8-[(3,3,3-trifluoropropyl)amino]imidazo[1,2-a]pyridin-3-yl}-N,2-dimethylbenzamide], the IC50 amounted to 65.2 nM.
Consider `C/C=C/c1cc(NCCC(F)(F)F)c2ncc(-c3ccc(C(=O)NCC)c(C)c3)n2c1` [Example 113, N-ethyl-2-methyl-4-{6-[(1E)-prop-1-en-1-yl]-8-[(3,3,3-trifluoropropyl)amino]imidazo[1,2-a]pyridin-3-yl}benzamide], for which the IC50 is 45.1 nM.
For `Cc1cc(-c2cnc3c(NCCC(F)(F)F)cc(Oc4cccc(OC(F)(F)F)c4)cn23)ccc1C(=O)NC1CC1` [Example 74, N-cyclopropyl-2-methyl-4-{6-[3-(trifluoromethoxy)phenoxy]-8-[(3,3,3-trifluoropropyl)amino]imidazo[1,2-a]pyridin-3-yl}benzamide], the IC50 turned out to be 6.8 nM.
Turning to `CNC(=O)c1ccc(-c2cnc3c(NCCC(F)(F)F)cc(Oc4cccc(F)c4F)cn23)cc1C` [Example 72, 4-{6-(2,3-Difluorophenoxy)-8-[(3,3,3-trifluoropropyl)amino]imidazo[1,2-a]pyridin-3-yl}-N,2-dimethylbenzamide], the IC50 worked out at 0.6 nM.
On to `CCNC(=O)c1ccc(-c2cnc3c(NCCC(F)(F)F)cc(Oc4cccc(F)c4)cn23)cc1C` [Example 10, N-ethyl-4-{6-(3-fluorophenoxy)-8-[(3,3,3-trifluoropropyl)amino]imidazo[1,2-a]pyridin-3-yl}-2-methylbenzamide], for which the IC50 is 2.9 nM.
On to `Cc1ccc(F)cc1Oc1cc(NCCC(F)(F)F)c2ncc(-c3ccc(C(=O)N[C@@H]4C[C@H]4C)c(C)c3)n2c1` (relative stereo) [Example 61, Rel-4-{6-(5-fluoro-2-methylphenoxy)-8-[(3,3,3-trifluoropropyl)amino]imidazo[1,2-a]pyridin-3-yl}-2-methyl-N-[(1R,2R)-2-methylcyclopropyl]benzamide], for which the IC50 is 4.9 nM.
Consider `COCCNc1cc(C(=O)c2cc(F)ccc2O)cn2c(-c3ccc(C(=O)NC4CC4)c(C)c3)cnc12` [Example 174, N-cyclopropyl-4-{6-(5-fluoro-2-hydroxybenzoyl)-8-[(2-methoxyethyl)amino]imidazo[1,2-a]pyridin-3-yl}-2-methylbenzamide], for which the IC50 came out at 816 nM.
With `Cc1cc(-c2cnc3c(NCCC(F)(F)F)cc(-c4ccc(C(=O)NC5(C#N)CC5)c(C)c4)cn23)ccc1C(=O)NC1CC1` [Example 150, 4-(6-{4-[(1-cyanocyclopropyl)carbamoyl]-3-methylphenyl}-8-[(3,3,3-trifluoropropyl)amino]imidazo[1,2-a]pyridin-3-yl)-N-cyclopropyl-2-methylbenzamide], the IC50 worked out at 0.8 nM.
`Cc1ccc(F)cc1Oc1cc(NCCC(F)(F)F)c2ncc(-c3ccc(C(=O)NC4(C#N)CCC4)c(C)c3)n2c1` [Example 63, N-(1-cyanocyclobutyl)-4-{6-(5-fluoro-2-methylphenoxy)-8-[(3,3,3-trifluoropropyl)amino]imidazor-1,2-aliwridin-3-yl}-2-methylbenzamide]: the IC50 is 59.7 nM.
Consider `CNC(=O)c1ccc(-c2cnc3c(NCCC(F)(F)F)cc(Oc4cc(F)ccc4C)cn23)cc1C` [Example 25, 4-{6-(5-Fluoro-2-methylphenoxy)-8-[(3,3,3-trifluoropropyl)amino]imidazo[1,2-a]pyridin-3-yl}-N,2-dimethylbenzamide], for which the IC50 amounted to 2.9 nM.
With `Cc1cc(-c2cnc3c(NCCC(F)(F)F)cc(Oc4cccc(F)c4)cn23)ccc1C(=O)NC1CC1F` (single isomer, unassigned) [Example 12 (ent.-A or A), N-{[(1R,2R) or (1S,2S)]-2-fluorocyclopropyl}-4-{6-(3-fluorophenoxy)-8-[(3,3,3-trifluoropropyl)amino]imidazo[1,2-a]pyridin-3-yl}-2-methylbenzamide], the IC50 was 0.7 nM.
As to `CCNC(=O)c1ccc(-c2cnc3c(NCCC(F)(F)F)cc(Oc4ccccc4)cn23)cc1C` [Example 60, N-ethyl-2-methyl-4-{6-phenoxy-8-[(3,3,3-trifluoropropyl)amino]imidazo[1,2-a]pyridin-3-yl}benzamide], the IC50 turned out to be 2.3 nM.

Broadly, the IC50 is the concentration that inhibits the measured activity by half.
